Patent US7335770B2, “Triazine compounds and their analogs, compositions, and methods” (Reddy U5 Therapeutics, Inc., priority 2004, dated 2008)

Assays:
MCP1 = assay: inhibition of TNF-induced MCP1; assay type: cell-based; settings: @ 10 uM concentration; read-out: TNF-induced MCP1, In-vitro % of inhibition
Method: The activity of the compounds of the present invention in inhibiting glycated protein- and AGE-induced inflammation can be determined using the assays described herein and in U.S. patent application Ser. No. 10/026,335, which is herein incorporated in its entirety. Such assays comprise measurement of the specific activity of biological components involved in a known cellular response. The assays provide a measurable response in which the activity of the compounds is determined. One assay comprises measurement of the effects of compounds on an inflammatory response by cells to the presence of a stimulating agent. Yet another assay comprises endothelial cells that are stimulated by the addition of a glycated protein, the stimulating agent. The endothelial cells respond by producing specific cytokines. The amount of cytokines produced are determined by measurement protocols known to those skilled in the art. The compounds of the present invention are then added to the assay and the production of cytokines is measured. From the comparison of the assay without the compound with the assay with the compound, the biological effect of the compound can be determined. The compound may have an inhibitory effect, a stimulatory effect, or no effect at all.
The amount and type of cytokine produced can be determined using immunological methods, such as ELISA assays. The methods of the present invention are not limited by the type of assay used to measure the amount of cytokine produced, and any methods known to those skilled in the art and later developed can be used to measure the amount of cytokines produced in response to the stimulating agent and to the compound having unknown activity.
Assays for determining the activity of compounds capable of modulating inflammation include those taught in U.S. patent application Ser. No. 10/026,335 and 09/969,013, which are both expressly incorporated by reference. In general, once the baseline response to the stimulating agent for the production of cytokines by the endothelial cells is established, thus comprising the control levels for the screening assay, the methods comprise addition of compounds of the present invention. The effect of the compound on the baseline response is determined by comparing the amount of cytokine produced in the presence of the stimulating agent and the amount of cytokine produced in the presence of the stimulating agent and the compound of the present invention. In a preferred method, compounds that have inhibitory effects on the inflammation of the cells in the presence of glycated albumin are then used as therapeutic agents. One or more compounds may be added to the screening assay. Combinations or mixtures of compounds can be added. Different amounts and formulations of the compounds are added to determine the effects on the screening assay. The screening assay may also be used to determine stimulatory compounds or compounds that have no effects in the assay.

melting point	SMILES	inhibition at 10 µM (MCP1)
	COc1ccc(Nc2nc(NC3CCCCCC3)nc(OCc3cccc(C)n3)n2)cc1Cl	48%
	COc1ccc(Nc2nc(NC3CCCCCC3)nc(-c3cc(O)ccc3O)n2)cc1Cl	100%
132 to 134 °C	COc1ccc(Nc2nc(NC3CCCCCC3)nc(Oc3ccc(C#CC(C)(C)O)cc3)n2)cc1Cl	
64 °C	CCN1CCCC1CNc1nc(Nc2ccc(OCc3ccccc3)c(Cl)c2)nc(NC2CCCCCC2)n1 (centres unmarked)	
206 to 208 °C	COc1ccc(Nc2nc(NC3CCCCCC3)nc(Oc3ccccc3I)n2)cc1Cl [Example 10, N^2-(3-chloro-4-methoxyphenyl)-N-4-cycloheptyl-6-(2-iodophenoxy)-1,3,5-triazine-4,2-diamine]	
150 to 158 °C	COc1ccc(Nc2nc(NC3CCCCCC3)nc(Oc3ccccc3C#CC(C)(C)O)n2)cc1Cl [Example 12, 4-{2-[4-(3-chloro-4-methoxyanilino)-6-cycloheptylamino-1,3,5-triazine-2-yl-oxy]-phenyl}-2-methyl-3-butyn-2-ol]	
218 to 220 °C	COc1ccc(Nc2nc(NC3CCCCCC3)nc(Oc3ccc(C=O)cc3)n2)cc1Cl [Example 15, 4-[4-(3-chloro-4-methoxyanilino)-6-cycloheptylamino-1,3,5-triazine-2-yl-oxy]-benzaldehyde]	
186 to 196 °C	COc1ccc(Nc2nc(NC3CCCCCC3)nc(Oc3ccc(C(C)=O)cc3Cl)n2)cc1Cl [Example 19, 1-{3-chloro-4-[4-(3-chloro-4-methoxyphenylamino)-6-cycloheptylamino-[1,3,5]triazine-2-yloxy]phenyl}ethanone]	
61 °C	COc1ccc(Nc2nc(NC3CCCCCC3)nc(OCC3CCCO3)n2)cc1Cl (centres unmarked) [Example 30, N-(3-Chloro-4-methoxy-phenyl)-N′-cycloheptyl-6-(tetrahydro-furan-2-ylmethoxy)-[1,3,5]triazine-2,4-diamine]	
92 °C	CCN1CCCC1CNc1nc(NC2CCCCCC2)nc(NC2CCC(O)CC2)n1 (centres unmarked) [Example 31, 4-{4-Cycloheptylamino-6-[(1-ethyl-pyrrolidin-2-ylmethyl)-amino]-[1,3,5]triazin-2-ylamino}-cyclohexanol]	
78 °C	CCN1CCCC1CNc1nc(Nc2ccc(C)c(F)c2)nc(NC2CCCCCC2)n1 (centres unmarked) [Example 32, N-Cycloheptyl-N′-(1-ethyl-pyrrolidin-2-ylmethyl)-N″-(3-fluoro-4-methyl-phenyl)-[1,3,5]triazine-2,4,6-triamine]	
	CCc1occc(=O)c1Oc1nc(Nc2ccc(OC)c(Cl)c2)nc(NC2CCCCCC2)n1 [drawing 616]	48%
	COc1ccc(Nc2nc(NC3CCCCCC3)nc(Oc3ccccc3F)n2)cc1Cl [drawing 618]	10%
	COc1ccc(Nc2nc(NC3CCCCCC3)nc(Oc3ccc(C(C)=O)cc3)n2)cc1Cl [drawing 624]	25%
	COc1ccc(Nc2nc(NC3CCCCCC3)nc(Oc3ccc(/C=N\O)cc3)n2)cc1Cl [drawing 625]	100%
	COc1ccc(Nc2nc(NC3CCCCCC3)nc(Oc3ccc(C(C)=O)cc3Cl)n2)cc1Cl [drawing 626]	82%
	COc1ccc(Nc2nc(NC3CCCCCC3)nc(Sc3ccccc3)n2)cc1Cl [drawing 628]	10%
	COc1ccc(Nc2nc(NC3CCCCCC3)nc(Sc3ccc(F)cc3)n2)cc1Cl [drawing 630]	15%
	COc1cc(OC)c(-c2nc(Nc3ccc(OC)c(Cl)c3)nc(NC3CCCCCC3)n2)c(OC)c1 [drawing 632]	10%
	COc1ccc(Nc2nc(NC3CCCCCC3)nc(-c3c(O)ccc4ccccc34)n2)cc1Cl [drawing 634]	100%

SMILES	melting point	inhibition at 10 µM (MCP1)
Cc1ccc(Nc2nc(NC3CCCCCC3)nc(N(C)C3CCN(C)CC3)n2)cc1F	93 °C	
CN1CCC(N(C)c2nc(Nc3cccc(F)c3)nc(NC3CCCCCC3)n2)CC1	86 °C	
COc1ccc(Nc2nc(NNC(=O)CCCCC3SCC4NC(=O)NC43)nc(NC3CCCCCC3)n2)cc1Cl (centres unmarked)	154 °C	
